Data reported in patent publication US20120220581A1, “IMIDAZO[1,2-b]PYRIDAZINE DERIVATIVES AND THEIR USE AS PDE10 INHIBITORS” (Janssen-Cilag, S.A., priority 2009, published 2012).

Assays:
[1] = biological target: other members of the PDE family (Homo sapiens, UniProt O60658); assay: In vitro PDE selectivity assay (SPA), other members of the PDE family (protocols in Table A); assay type: biochemical; details: hPDE8A1; read-out: PDE 8A1 (expressed as pIC50) (converted)
Procedure, shortened: (§1)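 Inhibition of each PDE isoform was measured by scintillation proximity assay with ³H-cyclic nucleotide substrate, using incubation buffer, substrate concentration, incubation time and stop solution adapted per isoform. Compounds were tested in dose-response against 1% DMSO controls and enzyme-free blanks. IC50 came from a least-squares fit of blank-subtracted % of control versus concentration.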

[2] = biological target: other members of the PDE family (Homo sapiens, UniProt P16499+P35913); assay: as above; assay type: biochemical; details: hPDE6AB; read-out: PDE 6AB (expressed as pIC50) (converted)
Procedure, shortened: as §1

[3] = test system: female hooded-Lister rats; assay: Object recognition test (NOR) after sub-chronic PCP; assay type: in vivo, rat; details: Day 1, 3 min retention trial, mean

Chain of other members of the PDE family (Homo sapiens, UniProt P16499+P35913) (P16499 whole entry): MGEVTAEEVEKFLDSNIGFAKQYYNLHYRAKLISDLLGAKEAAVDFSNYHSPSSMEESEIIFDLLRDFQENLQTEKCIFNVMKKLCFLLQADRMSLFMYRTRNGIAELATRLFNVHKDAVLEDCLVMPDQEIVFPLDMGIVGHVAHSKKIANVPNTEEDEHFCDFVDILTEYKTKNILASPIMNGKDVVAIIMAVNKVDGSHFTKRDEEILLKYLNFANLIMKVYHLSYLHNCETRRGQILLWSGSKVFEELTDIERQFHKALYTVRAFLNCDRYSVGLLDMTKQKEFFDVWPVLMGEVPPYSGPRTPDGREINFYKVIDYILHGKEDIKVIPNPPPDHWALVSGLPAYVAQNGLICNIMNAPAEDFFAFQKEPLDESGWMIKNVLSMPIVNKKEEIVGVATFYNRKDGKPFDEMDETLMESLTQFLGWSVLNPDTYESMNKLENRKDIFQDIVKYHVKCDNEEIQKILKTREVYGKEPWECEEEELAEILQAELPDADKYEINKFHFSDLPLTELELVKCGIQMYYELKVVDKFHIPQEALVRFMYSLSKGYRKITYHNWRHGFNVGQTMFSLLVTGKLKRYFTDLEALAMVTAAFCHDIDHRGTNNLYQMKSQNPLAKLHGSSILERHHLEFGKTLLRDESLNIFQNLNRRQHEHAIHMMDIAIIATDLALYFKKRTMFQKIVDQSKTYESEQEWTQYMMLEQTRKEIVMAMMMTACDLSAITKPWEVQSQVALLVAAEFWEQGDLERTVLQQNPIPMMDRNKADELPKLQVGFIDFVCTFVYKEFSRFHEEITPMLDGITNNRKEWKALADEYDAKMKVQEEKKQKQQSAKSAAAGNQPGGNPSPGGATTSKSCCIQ
Chain of other members of the PDE family (Homo sapiens, UniProt P16499+P35913) (P35913 whole entry): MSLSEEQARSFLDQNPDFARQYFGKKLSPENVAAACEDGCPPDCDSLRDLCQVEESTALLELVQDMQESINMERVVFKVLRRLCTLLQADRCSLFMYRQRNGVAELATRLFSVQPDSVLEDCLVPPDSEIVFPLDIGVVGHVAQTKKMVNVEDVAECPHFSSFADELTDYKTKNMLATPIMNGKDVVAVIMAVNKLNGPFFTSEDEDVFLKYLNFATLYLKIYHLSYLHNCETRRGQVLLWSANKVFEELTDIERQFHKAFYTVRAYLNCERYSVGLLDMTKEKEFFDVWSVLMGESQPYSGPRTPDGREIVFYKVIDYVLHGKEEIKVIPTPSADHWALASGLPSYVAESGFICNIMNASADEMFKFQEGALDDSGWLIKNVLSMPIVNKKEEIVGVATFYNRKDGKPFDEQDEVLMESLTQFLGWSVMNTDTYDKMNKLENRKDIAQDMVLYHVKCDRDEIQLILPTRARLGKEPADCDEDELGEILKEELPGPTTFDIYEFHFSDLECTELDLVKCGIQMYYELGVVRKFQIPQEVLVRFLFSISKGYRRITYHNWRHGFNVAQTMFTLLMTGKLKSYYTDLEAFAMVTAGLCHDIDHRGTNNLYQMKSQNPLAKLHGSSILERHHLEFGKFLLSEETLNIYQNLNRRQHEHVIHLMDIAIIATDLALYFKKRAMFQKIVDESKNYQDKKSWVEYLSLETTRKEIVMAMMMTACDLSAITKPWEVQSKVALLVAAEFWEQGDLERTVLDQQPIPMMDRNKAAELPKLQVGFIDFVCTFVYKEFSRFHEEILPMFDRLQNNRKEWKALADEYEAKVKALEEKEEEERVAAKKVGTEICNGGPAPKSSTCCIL
Chain of other members of the PDE family (Homo sapiens, UniProt O60658) (O60658 whole entry, canonical isoform): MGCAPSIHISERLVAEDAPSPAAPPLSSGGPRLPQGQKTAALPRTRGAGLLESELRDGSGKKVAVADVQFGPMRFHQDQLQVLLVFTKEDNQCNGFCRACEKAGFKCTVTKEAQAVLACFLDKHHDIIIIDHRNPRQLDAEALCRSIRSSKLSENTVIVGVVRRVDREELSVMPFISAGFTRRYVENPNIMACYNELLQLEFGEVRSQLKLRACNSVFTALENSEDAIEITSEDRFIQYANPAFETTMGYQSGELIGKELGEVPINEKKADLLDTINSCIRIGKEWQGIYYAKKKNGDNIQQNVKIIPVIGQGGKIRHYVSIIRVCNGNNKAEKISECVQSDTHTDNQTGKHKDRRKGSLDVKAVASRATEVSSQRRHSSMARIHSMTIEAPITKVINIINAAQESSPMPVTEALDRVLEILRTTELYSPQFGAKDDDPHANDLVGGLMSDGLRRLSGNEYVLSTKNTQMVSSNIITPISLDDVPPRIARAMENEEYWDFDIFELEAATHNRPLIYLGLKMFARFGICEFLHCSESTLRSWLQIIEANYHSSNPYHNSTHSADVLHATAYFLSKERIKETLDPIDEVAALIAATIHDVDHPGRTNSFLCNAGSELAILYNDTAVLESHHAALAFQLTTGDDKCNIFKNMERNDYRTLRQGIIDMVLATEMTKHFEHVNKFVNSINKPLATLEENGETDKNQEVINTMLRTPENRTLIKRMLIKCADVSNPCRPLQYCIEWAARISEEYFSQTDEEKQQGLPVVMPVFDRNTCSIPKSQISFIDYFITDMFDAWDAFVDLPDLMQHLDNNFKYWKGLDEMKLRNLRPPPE

COCCc1ccc(-c2c(C)nc3c(N4CCOCC4)ccnn23)cn1 [compound 1, 3-[6-(2-methoxyethyl)-3-pyridinyl]-2-methyl-8-(4-morpholinyl)-imidazo[1,2-b]pyridazine]
IC50 [1]: 77.6 µM
IC50 [2]: 85.1 µM
T2(A) exploration time of familiar object, retention trial ([3]; PCP + 0.3 mg/kg p.o.): 11.8 s
T2(B) exploration time of novel object, retention trial ([3]; PCP + 0.3 mg/kg p.o.): 17.6 s
T2(A) exploration time of familiar object, retention trial ([3]; PCP + 1 mg/kg p.o.): 10.7 s
T2(B) exploration time of novel object, retention trial ([3]; PCP + 1 mg/kg p.o.): 22.3 s
